Some test systems named below: RXF-631 renal; KM20L2 colon; HOP-18 NSCLC; HS 578T breast; DU-145 prostate; PC-3 prostate; MDA-MB-231 breast; MDA-N; SN12K1 renal; P388 leukemia; NCI/ADR-RES ovarian; P388/ADR leukemia.
Experiment in all cases: NCI tumour cell line growth inhibition, 48 h

Structures are written as SMILES. Where “and” joins values, the source holds several entries; their conditions need not be identical. Identical values can stand only once.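 Assay format: 96-well plates, 48-hour exposure. GI50 marks 50% less growth. The concentration for full growth arrest is given as TGI.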 Where only a bound is given, the exact number is not on record here.

As to `O=Cc1cn(S(=O)(=O)c2ccccc2)c2ccccc12`, the TGI in the assay with RXF-631 renal, in the assay with KM20L2 colon and in the assay on HOP-18 NSCLC was above 100 µM in each case.
With `Cc1cc(Cl)ccc1Nc1nc2c(s1)C(=O)c1ccccc1C2=O`, the TGI worked out at 5.79 µM in the assay on HS 578T breast; 3.04 µM in the assay with DU-145 prostate; 8.05 µM in the assay with PC-3 prostate; 20.2 µM in the assay on RXF-631 renal; 39.4 µM with KM20L2 colon; 12.9 µM in the assay on MDA-MB-231 breast. In addition, the TGI with HOP-18 NSCLC was 12.5 µM.
Consider `C=CCn1c(=O)c(C(=O)NC(=O)OCC)cn(C2CCCCC2)c1=O`, for which the TGI in the assay on RXF-631 renal, in the assay with KM20L2 colon and in the assay with HOP-18 NSCLC was above 100 µM throughout.
Take `COC1C(C)OC(OC2CC(C)(O)Cc3cc4c(c(O)c32)C(=O)c2c(O)cc3c(c2C4=O)OC2OC3(C)C(O)C(N(C)C)C2O)C(OC)C1(C)OC` (stereo unspecified): the TGI in the assay on HS 578T breast is 0.000563 µM; in the assay with MDA-N it was 0.00187 µM; in the assay with PC-3 prostate, 0.00375 µM; in the assay with SN12K1 renal, 0.06 µM; in the assay on RXF-631 renal, 7.14 µM; in the assay on KM20L2 colon it was 0.571 µM and 1.6 µM. Further, the TGI in the assay with P388 leukemia was 0.51 µM; with HOP-18 NSCLC, 0.919 µM and 3.11 µM; in the assay with NCI/ADR-RES ovarian, 21.2 µM; in the assay on P388/ADR leukemia, 7.1 µM. The GI50 was 0.0651 µM in the assay on KM20L2 colon and 0.157 µM in the assay on HOP-18 NSCLC.
Regarding `C/C(CC(=O)Nc1cccc(C)c1C)=N\NC(N)=S`, the TGI with RXF-631 renal, in the assay on KM20L2 colon and in the assay on HOP-18 NSCLC was above 100 µM each time.
In the case of `Cc1cc2c(C)nn(Cc3ccccc3Cl)c2c(C#N)c1C`, the TGI in the assay with RXF-631 renal, with KM20L2 colon and in the assay with HOP-18 NSCLC was above 100 µM throughout.

The record behind these values is PubChem BioAssay (NCI).
